Data as given in PubChem BioAssay (NCI).
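Each compound was tested at five concentrations against cells in 96-well plates for 48 hours. GI50 is the concentration that inhibits growth by half. At the TGI there is no net growth.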

Legend:
Test in all cases: NCI tumour cell line growth inhibition, 48 h
SF-539 CNS = tested on: SF-539 CNS
UACC-257 melanoma = tested on: UACC-257 melanoma
A498 renal = tested on: A498 renal
SK-MEL-5 melanoma = tested on: SK-MEL-5 melanoma
CAKI-1 renal = tested on: CAKI-1 renal
LOX IMVI melanoma = tested on: LOX IMVI melanoma
IGROV1 ovarian = tested on: IGROV1 ovarian
UACC-62 melanoma = tested on: UACC-62 melanoma
PC-3 prostate = tested on: PC-3 prostate
EKVX NSCLC = tested on: EKVX NSCLC

| Structure (SMILES) | GI50 (SF-539 CNS) [µM] | TGI (SF-539 CNS) [µM] | GI50 (UACC-257 melanoma) [µM] | TGI (UACC-257 melanoma) [µM] | GI50 (A498 renal) [µM] | TGI (A498 renal) [µM] | GI50 (SK-MEL-5 melanoma) [µM] | TGI (SK-MEL-5 melanoma) [µM] | GI50 (CAKI-1 renal) [µM] | TGI (CAKI-1 renal) [µM] | GI50 (LOX IMVI melanoma) [µM] | TGI (LOX IMVI melanoma) [µM] | GI50 (IGROV1 ovarian) [µM] | TGI (IGROV1 ovarian) [µM] | GI50 (UACC-62 melanoma) [µM] | TGI (UACC-62 melanoma) [µM] | GI50 (PC-3 prostate) [µM] | TGI (PC-3 prostate) [µM] | TGI (EKVX NSCLC) [µM] |
| --- | --- | --- | --- | --- | --- | --- | --- | --- | --- | --- | --- | --- | --- | --- | --- | --- | --- | --- | --- |
| Cc1cc(N/N=C/c2ccccn2)nc2ccccc12 | 0.289 | 1.04 | 0.395 | 5.02 | 0.633 | 7.05 | 0.302 | 6.24 | 0.313 | 2.59 | 0.413 | 10.9 | 0.356 | 3.95 | 0.406 | 3.36 | 0.486 | 19.2 |  |
| COC(=O)/C([Se]c1c(C)cc(C)cc1C)=C(/[Se]c1c(C)cc(C)cc1C)C(=O)OC |  | > 100 |  | > 100 |  | > 100 |  | > 100 |  | > 100 |  | > 100 |  | > 100 |  | > 100 |  |  | > 100 |
| CC(C)(C)c1ccc2c(c1)S(=O)(=O)Nc1ccc(Cl)cc1NS(=O)(=O)c1cc(C(C)(C)C)ccc1OCCOCCOCCO2 |  | > 100 |  | > 100 |  | > 100 |  | > 100 |  | > 100 |  | > 100 |  | > 100 |  | > 100 |  |  | > 100 |
| ClCCN(CCCl)c1ccc(CNc2ccccc2)cc1 | 3.21 | 24.2 | 12.7 | > 100 | 6.32 | 24.3 | 11.3 | 34.4 | 1.39 | > 100 | 4.52 | 26 | 16 | > 100 |  |  | 11.6 | > 100 |  |
| CCCCCCCCCCNC(=O)CI | 1.78 | 3.22 | 1.63 | 3.39 | 12.4 | 26.1 | 1.96 | 4.72 | 1.56 | 3.55 | < 0.0424 | 0.104 | 0.12 | 0.288 | 1.69 | 3.28 | 1.8 | 3.56 |  |
| CCOP(=O)(OCC)C(C(=O)OC)C(=O)C(=O)Nc1ccc(Cl)cc1Cl (stereo unspecified) |  | > 100 |  | > 100 |  | > 100 |  | > 100 |  | > 100 |  | > 100 |  | > 100 |  | > 100 |  |  | > 100 |
| NC(=O)C(=O)CC(=O)c1ccccc1NC1=CC(=O)C(=O)c2ccccc21 |  | > 100 |  | > 75.7 |  | > 100 |  | > 55.1 |  | > 100 |  | 36.1 |  | > 100 |  | > 72.4 |  |  | > 100 |
| CC1(C)CN=C(NN=C(/C=C/c2ccc(C(F)(F)F)cc2)/C=C/c2ccc(C(F)(F)F)cc2)NC1 | 1.85 | 3.45 | 1.56 | 2.96 | 1.42 | 2.78 | 1.6 | 3.11 | 1.09 | 2.37 | 1.39 | 2.8 | 1.44 | 2.88 | 1.72 | 3.31 |  |  |  |
| N#CCCN1C/C(=C/c2ccc(Br)cc2)C(=O)/C(=C/c2ccc(Br)cc2)C1 | 1.61 | 2.99 | 2.09 | 5.32 |  |  | 1.58 | 2.93 | 2.78 | > 100 | 0.512 | 1.76 | 2.02 | 5.35 | 1.93 | 4.52 | 1.51 | 7.54 |  |
| CC(C)=C1CCC(CN(C)C)C1=O (stereo unspecified) |  | > 100 |  | 31.6 |  | 36.9 |  | 32.9 |  |  |  |  |  | > 100 |  | 35.1 |  |  | 31.9 |
| O=C(N/C(=C\c1ccc([N+](=O)[O-])cc1)c1nc2ccccc2[nH]1)c1ccccc1 |  | > 100 |  | > 100 |  | > 100 |  | > 100 |  |  |  |  |  | > 100 |  | > 100 |  |  | > 100 |
| O=C(Cc1nc2c3c(ccc2[nH]c1=O)C(=O)c1ccccc1C3=O)C(=O)Nc1ccccc1[N+](=O)[O-] |  | 34.6 |  | 37 |  |  |  | 37.3 |  | 62.9 |  | 44.8 |  | 65.4 |  | 59 |  |  | 36.7 |
| CCOCN1COCN(C)C1=O |  | > 100 |  | > 100 |  | > 100 |  | > 100 |  | > 100 |  | > 100 |  | > 100 |  | > 100 |  |  | > 100 |
| CN(C(=O)c1ccc([N+](=O)[O-])cc1)c1ccccc1 |  | > 100 |  | > 100 |  | > 100 |  |  |  | > 100 |  | > 100 |  | > 100 |  | > 10 |  |  | > 100 |
| Cc1ccccc1C1=[N+]([O-])c2ccc(Cl)cc2C1=O |  | 31.6 |  | 26.4 |  | 71.4 |  | 26.7 |  |  |  | 20.2 |  | 29.8 |  | 24.9 |  |  | 25 |
| N#CC(=Nc1ccccc1N(C(=O)c1ccccc1)C(=O)c1ccccc1)c1ccccc1 |  | > 100 |  | > 100 |  | > 100 |  | > 100 |  | > 100 |  | > 100 |  | > 100 |  | > 100 |  |  | > 100 |
| O=[N+]([O-])c1cccc(C2=NOC(C3CCCCC3)C2)c1 (stereo unspecified) |  | > 100 |  | > 100 |  | > 100 |  | > 100 |  |  |  |  |  | > 100 |  | > 100 |  |  |  |
| c1coc(-c2c3ccc(=[N+]4CCCCC4)cc-3oc3cc(N4CCCCC4)ccc23)c1 |  |  | 0.0432 | 0.191 | 0.0784 | 0.568 | 0.177 | 0.471 | 0.0313 | 0.105 |  |  |  |  | 0.102 | 1.09 | 0.0702 | 1.06 |  |
| Cc1cc2c(c(C(N)=O)c1C)-c1ccccc1C2=O |  | > 100 |  | > 100 |  | > 100 |  |  |  |  |  | > 100 |  | > 100 |  | > 100 |  |  | > 100 |
